Assay results: patent US7759302B2, “Peptidic sulfonamides” (Merck Patent GmbH, priority 2003, dated 2010)

Target: αvβ6 integrin (Homo sapiens, UniProt P06756+P18564)
Assay: Influence of soluble substances on the binding of biotinylated fibronectin to immobilised αvβ6 (ELISA-type competition binding test)
Conditions: competition with biotinylated fibronectin at immobilised αvβ6; standard employed in each experiment
Protocol: The prepared peptides according to the invention together with competing fibronectin were bound in solution to the immobilised αvβ6 receptor, and the Q value as a measure of the selectivity of the binding of the peptide to be tested to αvβ6 was determined. The Q value is calculated from the quotient of the IC50 values of test peptide and a standard. The standard used was the linear Ac-RTDLDSLR-NH2(SEQ ID NO: 22) (WO01/00660; Pytela et al., 1986, Science 231, 1559). The binding test was carried out in detail as follows:
αvβ6 was immobilised on microtitre plates by dilution of the protein solution in TBS++ and subsequent incubation overnight at 4° C. (100 μl/well). Non-specific binding sites were blocked by incubation (2 h; 37° C.) with 3% (w/v) BSA in TBS++ (200 μl/well). Excess BSA was removed by washing three times with TBSA++. […]
Unbound fibronectin and peptides were removed by washing three times with TBSA++. The bound fibronectin was detected by incubation (1 h; 37° C.) with an alkaline phosphatase-coupled antibiotin antibody (1:20000 in TBSA++; 100 μl/well). […] The colour intensity was determined at 405 nm in the ELISA measuring instrument and adjusted against a blank value. […]
IC50 values for the peptides tested were read off from a graph, and the Q value of the peptide was determined therefrom together with the IC50 of the standard.

Ac-RTDLDSLR-NH2 [AC-RTDLDSLR-NH2, Ac-RTDLDSLR-NH2]
IC50: < 0.1 µM
